Data on 17 compounds can be found in patent US9795140B2, “Molecules having pesticidal utility, and intermediates, compositions, and processes, related thereto” (priority 2015, dated 2017).

Holding throughout (format): in vivo
Series [1] relates to Beet Armyworm (Spodoptera exigua, LAPHEG). As to the kind of experiment: Bioassay on Beet Armyworm (BAW), 128-well diet tray assay. As to conditions: 168 h, 50 μg/cm^2 on artificial diet, second instar larvae, 25° C., five to seven days, average of eight wells, read-out: BAW % Control (or Mortality) rating. The method, then: (§1) Certain molecules disclosed in this document were tested against BAW and CL using procedures described in the following examples. In the reporting of the results, the “BAW & CL Rating Table” was used (See Table Section).
Bioassays on BAW were conducted using a 128-well diet tray assay. One to five second instar BAW larvae were placed in each well (3 mL) of the diet tray that had been previously filled with approximately 1.5 mL of artificial diet to which 50 μg/cm^2 of the test molecule (dissolved in 50 μL of 90:10 acetone-water mixture) had been applied (to each of eight wells) and then allowed to dry. Trays were covered with a clear self-adhesive cover, vented to allow gas exchange, and held at 25° C., 14:10 light-dark for five to seven days. Percent mortality was recorded for the larvae in each well; activity in the eight wells was then averaged. The results are indicated in the table entitled “Table ABC: Biological Results” (See Table Section).

Series [2] concerns Yellow Fever Mosquito (Aedes aegypti, AEDSAE). As to the kind of experiment: Bioassay on Yellow Fever Mosquito (YFM) larvae, 96-well plate. As to conditions: about 1 day-old larvae, room temperature, 3 days, scored on mortality. The protocol: Certain molecules disclosed in this document were tested against YFM using procedures described in the following paragraph. In the reporting of the results, the “GPA & YFM Rating Table” was used (See Table Section).
Master plates containing 400 μg of a molecule dissolved in 100 μL of dimethyl sulfoxide (DMSO) (equivalent to a 4000 ppm solution) are used. A master plate of assembled molecules contains 15 μL per well. To this plate, 135 μL of a 90:10 water/acetone mixture is added to each well. A robot is programmed to dispense 15 μL aspirations from the master plate into an empty 96-well shallow plate (“daughter” plate). There are 6 reps (“daughter” plates) created per master. The created “daughter” plates are then immediately infested with YFM larvae.
The day before plates are to be treated, mosquito eggs are placed in Millipore water containing liver powder to begin hatching (4 g. into 400 mL). After the “daughter” plates are created using the robot, they are infested with 220 μL of the liver powder/larval mosquito mixture (about 1 day-old larvae). After plates are infested with mosquito larvae, a non-evaporative lid is used to cover the plate to reduce drying. Plates are held at room temperature for 3 days prior to grading. After 3 days, each well is observed and scored based on mortality. The results are indicated in the table entitled “Table ABC: Biological Results” (See Table Section).

Series [3] deals with Cabbage Looper (Trichoplusia ni, TRIPNI). As to the kind of experiment: Bioassay on Cabbage Looper (CL), 128-well diet tray assay. As to conditions: 168 h, 50 μg/cm^2 on artificial diet, second instar larvae, 25° C., five to seven days, average of eight wells, read-out: CL % Control (or Mortality) rating. The protocol: as §1
Bioassays on CL were conducted using a 128-well diet tray assay, one to five second instar CL larvae were placed in each well (3 mL) of the diet tray that had been previously filled with 1 mL of artificial diet to which 50 μg/cm^2 of the test molecule (dissolved in 50 μL of 90:10 acetone-water mixture) had been applied (to each of eight wells) and then allowed to dry. Trays were covered with a clear self-adhesive cover, vented to allow gas exchange, and held at 25° C., 14:10 light-dark for five to seven days. Percent mortality was recorded for the larvae in each well; activity in the eight wells was then averaged. The results are indicated in the table entitled “Table ABC: Biological Results” (See Table Section).

What is called mortality is the share of the test organisms that died. As to `CNC(=O)c1cc(NC(=O)[C@H]2[C@H](c3cc(Cl)cc(Cl)c3)C2(Cl)Cl)ccc1Cl` (relative stereo) [F1, trans-2-chloro-5-(2,2-dichloro-3-(3,5-dichlorophenyl)cyclopropane-1-carboxamido)-N-methylbenzamide], the mortality at 50 µg/cm2 in series [1] and in series [3] was 50 to 100% each time. Also, in series [2], the “YFM % Control (or Mortality) rating” value is reported as “A (80-100)”.
Turning to `O=C(NCC(F)(F)F)c1cccc(NC(=O)[C@H]2[C@H](c3cc(Cl)cc(Cl)c3)C2(Cl)Cl)c1` (relative stereo) [F3, trans-3-(2,2-Dichloro-3-(3,5-dichlorophenyl)cyclopropane-1-carboxamido)-N-(2,2,2-trifluoroethyl)benzamide], the mortality at 50 µg/cm2 in series [1] and in series [3] was 50 to 100% each time. Also, the “YFM % Control (or Mortality) rating” value in series [2] is on record as “A (80-100)”.
`O=C(CNC(=O)c1cc(NC(=O)[C@H]2[C@H](c3cc(Cl)cc(Cl)c3)C2(Cl)Cl)ccc1Cl)NCC(F)(F)F` (relative stereo) [F5, trans-2-Chloro-5-(2,2-dichloro-3-(3,5-dichlorophenyl)cyclopropane-1-carboxamido)-N-(2-oxo-2-((2,2,2-trifluoroethyl)amino)ethyl)benzamide]: the mortality at 50 µg/cm2 in series [1] and in series [3] was 50 to 100% throughout.
Consider `O=C(NCc1cccnc1)c1cc(NC(=O)[C@H]2[C@H](c3cc(Cl)c(Cl)c(Cl)c3)C2(Cl)Cl)ccc1Cl` (relative stereo) [F7, trans-2-Chloro-5-(2,2-dichloro-3-(3,4,5-trichlorophenyl)cyclopropane-1-carboxamido)-N-(pyridin-3-ylmethyl)benzamide], for which the mortality at 50 µg/cm2 in series [1] and in series [3] was 50 to 100% in each case. Moreover, the “YFM % Control (or Mortality) rating” value in series [2] is given as “A (80-100)”.
Turning to `O=C(NCc1ccccn1)c1cc(NC(=O)[C@H]2[C@H](c3cc(Cl)cc(Cl)c3)C2(Cl)Cl)ccc1Cl` (relative stereo) [F8, trans-2-Chloro-5-(2,2-dichloro-3-(3,5-dichlorophenyl)cyclopropane-1-carboxamido)-N-(pyridin-2-ylmethyl)benzamide], the mortality at 50 µg/cm2 in series [1] and in series [3] was 50 to 100% each time.
With `O=C(NCc1ccccn1)c1cc(NC(=O)[C@H]2[C@H](c3cc(Cl)c(Cl)c(Cl)c3)C2(Cl)Cl)ccc1Cl` (relative stereo) [F9, trans-2-Chloro-5-(2,2-dichloro-3-(3,4,5-trichlorophenyl)cyclopropane-1-carboxamido)-N-(pyridin-2-ylmethyl)benzamide], the mortality at 50 µg/cm2 in series [1] and in series [3] was 50 to 100% each time.
For the compound `C=CCONC(=O)c1cc(NC(=O)[C@H]2[C@H](c3cc(Cl)cc(Cl)c3)C2(Cl)Cl)ccc1Cl` (relative stereo) [F10, trans-N-(Allyloxy)-2-chloro-5-(2,2-dichloro-3-(3,5-dichlorophenyl)cyclopropane-1-carboxamido)benzamide], the mortality at 50 µg/cm2 in series [1] and in series [3] was 50 to 100% each time.
For `C=CCONC(=O)c1cc(NC(=O)[C@H]2[C@H](c3cc(Cl)c(Cl)c(Cl)c3)C2(Cl)Cl)ccc1Cl` (relative stereo) [F11, trans-N-(Allyloxy)-2-chloro-5-(2,2-dichloro-3-(3,4,5-trichlorophenyl)cyclopropane-1-carboxamido)benzamide], the mortality at 50 µg/cm2 in series [1] and in series [3] was 50 to 100% each time.
In the case of `CN(C)CCCCNC(=O)c1cc(NC(=O)[C@H]2[C@H](c3cc(Cl)cc(Cl)c3)C2(Cl)Cl)ccc1Cl` (relative stereo) [F50, trans-2-Chloro-5-(2,2-dichloro-3-(3,5-dichlorophenyl)cyclopropane-1-carboxamido)-N-(4-(dimethylamino)butyl)benzamide], the values for the mortality at 50 µg/cm2 in series [1] and in series [3] were 0% and 50 to 100%, respectively.
For the compound `O=C(NCCCl)c1cc(NC(=O)[C@H]2[C@H](c3cc(Cl)cc(Cl)c3)C2(Cl)Cl)ccc1Cl` (relative stereo) [F51, trans-2-Chloro-N-(2-chloroethyl)-5-(2,2-dichloro-3-(3,5-dichlorophenyl)cyclopropane-1-carboxamido)benzamide], the mortality at 50 µg/cm2 in series [1] and in series [3] was 50 to 100% throughout. Besides, the “YFM % Control (or Mortality) rating” value in series [2] is “B (More than 0-Less than 80)”.
For the compound `CSCCNC(=O)c1cc(NC(=O)[C@H]2[C@H](c3cc(Cl)cc(Cl)c3)C2(Cl)Cl)ccc1Cl` (relative stereo) [F52, trans-2-Chloro-5-(2,2-dichloro-3-(3,5-dichlorophenyl)cyclopropane-1-carboxamido)-N-(2-(methylthio)ethyl)benzamide], the mortality at 50 µg/cm2 in series [1] and in series [3] was 50 to 100% throughout. For the same compound, the “YFM % Control (or Mortality) rating” value in series [2] is recorded as “B (More than 0-Less than 80)”.
Consider `COCCNC(=O)c1cc(NC(=O)[C@H]2[C@H](c3cc(Cl)cc(Cl)c3)C2(Cl)Cl)ccc1Cl` (relative stereo) [F53, trans-2-Chloro-5-(2,2-dichloro-3-(3,5-dichlorophenyl)cyclopropane-1-carboxamido)-N-(2-methoxyethyl)benzamide], for which the mortality at 50 µg/cm2 in series [1] and in series [3] was 50 to 100% throughout. In addition, the “YFM % Control (or Mortality) rating” value in series [2] is recorded as “B (More than 0-Less than 80)”.
Turning to `C#CCN(C)C(=O)c1cc(NC(=O)[C@H]2[C@H](c3cc(Cl)cc(Cl)c3)C2(Cl)Cl)ccc1Cl` (relative stereo) [F65, trans-2-Chloro-5-(2,2-dichloro-3-(3,5-dichlorophenyl)cyclopropane-1-carboxamido)-N-methyl-N-(prop-2-yn-1-yl)benzamide], the mortality at 50 µg/cm2 in series [1] and in series [3] was 50 to 100% throughout.
For `CN(CC#N)C(=O)c1cc(NC(=O)[C@H]2[C@H](c3cc(Cl)cc(Cl)c3)C2(Cl)Cl)ccc1Cl` (relative stereo) [F66, trans-2-Chloro-N-(cyanomethyl)-5-(2,2-dichloro-3-(3,5-dichlorophenyl)cyclopropane-1-carboxamido)-N-methylbenzamide], the mortality at 50 µg/cm2 in series [1] and in series [3] was 50 to 100% throughout.
For `C[S+]([O-])CCNC(=O)c1cc(NC(=O)[C@H]2[C@H](c3cc(Cl)cc(Cl)c3)C2(Cl)Cl)ccc1Cl` (relative stereo) [F74, trans-2-chloro-5-(2,2-dichloro-3-(3,5-dichlorophenyl)cyclopropane-1-carboxamido)-N-(2-(methylsulfinyl)ethyl)benzamide], the mortality at 50 µg/cm2 in series [1] and in series [3] was 50 to 100% in each case.
For `O=C(NCC(F)(F)F)c1cc(NC(=O)[C@H]2[C@H](c3cc(Cl)cc(Cl)c3)C2(Cl)Cl)cc(Cl)c1Cl` (relative stereo) [F93, trans-2,3-Dichloro-5-(2,2-dichloro-3-(3,5-dichlorophenyl)cyclopropane-1-carboxamido)-N-(2,2,2-trifluoroethyl)benzamide], the mortality at 50 µg/cm2 in series [1] and in series [3] was 50 to 100% each time.
With `O=C(NCC(F)(F)F)c1cc(NC(=O)C2C(c3cc(F)c(F)c(F)c3)C2(Cl)Cl)ccc1Cl` (stereo not drawn) [F127, 2-Chloro-5-cis-(2,2-dichloro-3-(3,4,5-trifluorophenyl)cyclopropane-1-carboxamido)-N-(2,2,2-trifluoroethyl)benzamide], the “YFM % Control (or Mortality) rating” value in series [2] is “A (80-100)”.
